Laboratory results as given in EP1087941B9, “THIOLESTERS AND USES THEREOF” (THE UNITED STATES OF AMERICA, as represented by THE …, priority 1998, dated 1999).
Entries after “also recorded” stand apart in the source; their conditions may differ.

Legend:
[1] = target: T1, Virion-associated NCp7 proteins from cell-free HIV-1MN (Human immunodeficiency virus type 1 group M subtype B, UniProt P05888); experiment: Intravirion NCp7 cross-linking, non-reducing Western blotting
T1 construct: an attack on the mature NCp7 retroviral zinc fingers in the cell-free virus; endogenous in cells
Procedure: The interaction of zinc finger inhibitors, such as the thiolesters of the invention, with cell-free virus can result in modification of intravirion NCp7 protein and loss of infectivity. Virion-associated NCp7 proteins from cell-free HIV-1MN were treated with thiolester compounds 44 and 45. They were also evaluated by non-reducing Western blotting using HIV-1 NCp7-specific antibodies. […] Cross-linking by compound 45 was due to formation of intermolecular disulfide bonds because reduction with 2-mercaptoethanol (β-ME) completely reversed the gel retardation.
Virion cross linking was performed as described by Rice (1995) Science 270:1194-1197 and Turpin (1997) Antiviral Chem. Chemother. 8:60-67. Briefly, highly purified HIV-1 MN (11.8 µg total protein) was incubated for 2 hour with concentrations of compound. Virions were concentrated and residual compound was removed by centrifugation (18,000 x g, 1 h, 4°C). The viral pellet was solubilized in 0.5 M Tris-HCl,(pH 6.8), 50% glycerol, 8% SDS and 0.4% bromophenol blue and proteins resolved by Western blotting. Western blotting to detect the expression of HIV-1 proteins in U1 cells or virus pellets for virion cross-linking experiments was carried out as described by Turpin (1996) J. Virol. 70:6180-6189. Briefly, 50 µg of total cellular protein for U1 experiments or the total virion pellet (11.8 µg total viral protein) for NCp7 cross linking studies was resolved on 4 to 20% polyacrylamide gels in SDS with Tris-Glycine (Novex, San Diego CA). Samples for reduced gels were boiled for 5 min in the presence of 5% β-ME prior to loading. Resolved proteins were electroblotted on to polyvinylidene difluoride (PVDF) membranes, and HIV-1 specific proteins were detected using a mixture of goat anti- HIV-1 NCp7 and p24 or anti-NCp7 for virion proteins alone (a kind gift of L. E. Henderson, AIDS Vaccine Program NCI-FCRDC, Frederick, MD). Western blots were developed using standard chemiluminescence methodologies, as produced and described by Dupont-NEN, Wilmington, DE.
Purified concentrated retrovirus and antisera against the purified NC protein of the virus can be used to test the ability of a specific compound to penetrate the virus and react with the NC protein by forming disulfide complexes in the core of the virus. Compound are mixed with the whole retrovirus under reaction conditions appropriate for the compound. The virus is then removed from the reagent by centrifugation and disrupted in, e.g., standard SDS-PAGE sample buffer with (reduced) and without (non-reduced) 2-mercaptoethanol. […] Thus, compounds of interest (i.e., those which cause cross-linking), including the thiolesters of the invention, reduce the amount of monomeric zinc finger protein detected.

[2] = target: T2, recombinant HIV-1 NCp7 protein (Human immunodeficiency virus type 1 group M subtype B, UniProt P03347); experiment: Trp37 zinc finger fluorescence (zinc ejection) assay; type: biochemical; parameters: Zinc Finger Reactivity, percent total decrease in flourescence / Zinc Finger Reactivity % Decrease: concentration or dose not given beside the values; conditions: for zinc finger reactivity in the presence of glutathione: 2 molar excess of glutathione; for Zinc Finger Reactivity, decrease in relative fluorescence units per 30 min. / Zinc Finger Reactivity, percent total decrease in flourescence: Table 7; for Zinc Finger Reactivity, percent total decrease in flourescence: value in parenthesis; for percent decrease in total Trp37 fluorescence (zinc ejection) at 2000 µM: 30 min incubation, read-out: Zinc Finger Reactivity % Decrease; for Zinc Finger Reactivity % Decrease: total percent decrease during a 30 min incubation; for zinc finger reactivity: result in words
T2 construct: within the nucleocapsid p7 (NCp7) protein portion of the polyprotein
Procedure: Zinc finger reactivity was measured using a Zn specific fluorochrome, TSQ, N-(6-methoxy-8-quinolyl) -p-toluenesulfonamide, assay or a Trp37 zinc finger fluorescence assay. Fluorescent measurements of the Trp37 residue in the C-terminal finger of recombinant HIV-1 NCp7 protein were performed as described by Rice (1995) Science 270:1194-1197; Rice (1997) Antimicrob. Agents Chemother. 41:419-426. Measurement of Zn ejection from both fingers was measured using the Zn-selective fluorchrome probe TSQ (Molecular Probes, Eugene OR) as described by Rice (1996) J. Med. Chem 39:3606-3616. Measurement of the ability of NCp7 to bind to a DNA oligomer, a 44 mer: […] (SEQ ID NO:1), analogous to the HIV-1 RNA packaging site was carried out as described by Huang (1998) J. Med. Chem. 41:1371-1381, see also, Rossio (1998) HIV Pathogenesis and Treatment: Keystone Symposium on Molecular and Cellular Biology, Abstract # 4082. Briefly, 50 nM NCp7 was treated with test compounds for 1 hour at RT in […] buffer containing 10% glycerol and 50 mM Tris-HCl (pH 7.5). Labeled oligomer (0.1 picomole, end labeled [^32P]) was added in an equal volume of buffer containing 10% glycerol, 50 mM Tris-HCl (pH 7.5), 400 mM KCl and 40 mM MgCl2. The reaction was continued for 15 min at room temperature, and a total of […] (or 1/4 of the total reaction volume) was separated on nondenaturing 4.5% polyacrylamide gels in 0.5X Tris-Borate electrophoresis buffer. NCp7-oligomer complexes were visualized by autoradiography.
Changes in the intrinsic fluorescence of aromatic protein moieties are commonly used to monitor a reaction which involves a change in protein conformation. In the present invention, fluorescence can be used to monitor the loss of metal ion from a zinc finger, e.g., the loss of zinc from a CCHC retroviral zinc finger protein, after contact with a thiolester of the invention. The intrinsic fluorescence of Trp 37 in the second zinc finger of HIV-1 NC protein has been used to monitor nucleic acid binding and conformation of the zinc finger complex (see, Summers (1992) supra).
Zinc ejection is measured by the ability of compounds to chemically attack the cysteines in purified NCp7 protein resulting in a loss of fluorescence due to the movement of the tryptophan 37 residue from an exposed to an internal position on the protein. Zinc ejection is measured and expressed as either percent decrease in total fluorescence or decrease in relative fluorescence units per min during a 30 min assay (RFU/min). A thiolester is considered within the scope of the invention if any amount of zinc ejection is detected. For example, compound 50 has a zinc ejection rate of 0.86 RFU/min.

[3] = Table 6, average decrease in relative fluorescence units over 30 min
[4] = Table 8, GSH +: compounds (2 mM) treated 2 h at 37°C with 4 mM reduced glutathione
[5] = Table 5, average decrease in relative fluorescence units over 30 min

Compound | intravirion NCp7 cross-linking [1] | zinc finger reactivity in the presence of glutathione [2] | Zinc Finger Reactivity RFU/ min [2, 3] [RFU/ min] | Zinc Finger Reactivity, decrease in relative fluorescence units per 30 min. [2] [RFU/30 MIN] | Zinc Finger Reactivity, percent total decrease in flourescence [2] [%] | Zinc Finger Reactivity RFU/ min [2, 4] [RFU/min] | percent decrease in total Trp37 fluorescence (zinc ejection) at 2000 µM [2, 4] [%] | Zinc Finger Reactivity RFU/ min ([2]; Table 8, GSH -) [RFU/min] | Zinc Finger Reactivity % Decrease ([2]; Table 8, GSH -) [%] | zinc finger reactivity [2] | zinc finger reactivity / zinc ejection rate [2] [RFU/min] | Zinc Finger Reactivity RFU/ min [2, 5] [RFU/ min] | Zinc Finger Reactivity RFU/ min ([2]; Table 10, average decrease in relative fluorescence units over 30 min) [RFU/ min]
O=C(CCCC[n+]1ccccc1)Sc1ccccc1C(=O)Nc1ccc(S(=O)(=O)c2ccc([N+](=O)[O-])cc2)cc1 [Compound 47] | did not effectively initiate NCp7 cross-linking | maintained the capacity to attack the cysteine thiols | 4.1 | 4.1 | 17.9 | 1.6 | 21.1 | 1.6 | 24.3 | promoted metal ion (zinc) ejection |  |  | 
CC(=O)NS(=O)(=O)c1ccc(NC(=O)c2ccccc2SC(=O)CCCC[n+]2ccccc2)cc1 [Compound 45, N-[2-(5-pyridinio-valeroylthio)benzoyl]sulfacetamide bromide] | extensive cross-linking of NCp7; also recorded: strong cross-linker of intravirion NCp7 | maintained the capacity to attack the cysteine thiols | 3.6 | 3.6 | 34.7 | 3.8 | 36.9 | 2.6 | 28.2 | promoted metal ion (zinc) ejection | 3.6 | 3.6 | 3.6
CC(=O)NS(=O)(=O)c1ccc(NC(=O)c2ccccc2SC(=O)CCCCBr)cc1 [Compound 44, N-[2-(5-bromovaleroylthio)benzoyl]sulfacetamide] | very poor cross-linking agent | maintained the capacity to attack the cysteine thiols | 1.8 | 1.8 | 13.3 | 2.4 | 28 | 6.5 | 60.1 | promoted metal ion (zinc) ejection |  | 1.8 | 
